Laboratory results as given in patent US20060167057A1, “Compounds for the treatment of CNS and amyloid associated diseases” (priority 2004, published 2006).
Values belong to the molecule of their own block, whether it stands above or below them.

What was measured:
[1] = biological target: T1, L1 transport system (large neutral amino acid carrier, L1-system carrier) (Rattus norvegicus, UniProt Q63016); experiment: Competitive binding assay to the brain L1 transport system (L-[U-14C]phenylalanine on rat primary cerebrovascular endothelial cells)
T1 construct: functionality of their endogenous transporters such as the L1-system carrier; endogenous in cells; host or cells: rat primary cerebrovascular (brain microcapillary) endothelial cells, RBEC
Method in brief: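 Cells were primary cerebral microvascular endothelial cells from cortices of 24-day-old rats, isolated by collagenase/DNAse digestion, dextran separation and mesh filtration.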

HUVEC = experiment: Cellular toxicity assay on HUVEC (WST-1 viability); assay type: cell-based, human; details: 24 hours, <75% considered toxic
Protocol: Compound samples in PBS (without Ca^+2, Mg^+2)-glucose 3 mM-HEPES 10 mM—DMSO 1%, as prepared in Example 1, were thawed and left for at least 30 minutes at 20-23° C. before preparation of the following sub-dilutions for the compound toxicity assay: • 100 μL of stock compound solution were added to 900 μL PBSD-1 [diluted 1:10 for a final 1:10 dilution] • 100 μL (1/10 dilution above) were added to 900 μL PBSD-1 [diluted 1:10 for a final 1:100 dilution] Culture of HUVEC
Endothelial cells from human umbilical cord (HUV-EC-C or HUVEC) were purchased form American Type Culture Collection (ATCC, CRL-1730) and cultured according to the manufacturer's protocol. A 1-mL frozen aliquot of sub-cultured cells was thawed in a 37° C. water bath and centrifuged following addition of 5 mL of medium. After re-suspension in 5 mL medium, cells were seeded in a TC80 cm^2 flask pre-coated with 0.1% gelatin. Culture medium was replaced every 3-4 days and cells monitored until confluency was reached.
A sterile stock solution of 0.5 mM of camptothecin (Sigma) was prepared by dissolving a weighed amount of 0.0085 g in 50 mL of double distilled water at 37° C. in a water bath. The solution was vortexed, then filtered through a 0.22-μm filter unit and kept at 4° C. for the duration of the toxicity assays.
From the stock solution, concentrations of 60, 75, 80, 100, 150, 200 and 250 nM of camptothecin were prepared in culture diluent containing 1% DMSO.
HUVEC were cultured for 4 days in gelatin-coated 96-well plates, following seeding with 40 μL/well of a cellular suspension of 1×10^5 cells/mL. Culture media was replaced every 3-4 days of culture until confluency was reached.
On the day of the toxicity assay, the conditioned culture media was removed from the wells and 90 μL of culture medium containing 1% DMSO was distributed in the plate. A volume of 10 μL of the stock solution, 1:10 and 1:100 dilutions of the compounds in PBS-glucose-HEPES-DMSO 1% were added to the appropriate wells (100-μL total volume/well). A volume of 100 μL of camptothecin dilutions and culture medium containing 1% DMSO was also distributed into the plate. Cells were incubated at 37° C. of 24 hours and then 10 μL of the tetrazolium salt WST-1 solution were added to cells and incubated for an extra 90 minutes at 37° C. The absorbance that was associated to the cellular viability was measured at 450nm on the SpectraFluor Tecan reader, and the raw data processed.
The intrinsic cellular toxicity of the compounds was determined for each concentration of every compound on HUVEC. The viability percentage was assessed (OD sample/OD control) ×100% and any value <75% viability was considered toxic. The following table, Table 5, lists the few compounds that presented at least one toxic concentration.

[2] = test system: Apolipoprotein E-Aβ interaction; experiment: Apolipoprotein E-Aβ interaction assay; assay type: binding; details: 200 μM test compound, ApoE/Aβ alone = 100%
Protocol: The level of interaction between Apolipoprotein E and Aβ was measured for five inventive compounds to determine whether, under the specific conditions of the present example, the compounds would inhibit the interaction. Nunc-Immuno Maxisorp 96-well microtiter plates were coated with 1 μM HFIP-disaggregated Aβ in 0.1 M NaHCO3 pH 9.6 for 2 hours and 15 minutes at 37°, washed two times in TBS (100 mM Tris-HCl, pH 7.5, 150 mM NaCl), and wells were blocked with 1% fatty-acid free BSA in TBS overnight at 4°.
Test compounds were prepared in either TBS or DMSO at a final concentration of either 2 mM or 10 mM respectively. Recombinant ApoE (Fitzgerald Industries Int.) was prepared in 700 mM NH4HCO3 at a final concentration of 0.44 mg/mL to prevent monomer assembly and stored as aliquots at −20°. 3.41 μg/mL of purified ApoE was pre-incubated in the presence of 200 μM test compounds, all in triplicate, in 1% BSA/TBS in a 96-well transfer plate for one hour and then added to the Aβ-coated wells for an additional two hours with gentle shaking at 37° to allow ApoE/Aβ association. Plates were washed three times in TBS to remove excess ApoE and incubated first with 0.125 μg/mL mouse monoclonal anti-ApoE antibody (BD Bioscience) for 1 hour, washed and then incubated with 0.26 μg/mL horse-radish peroxidase conjugated goat anti-IgG antibody (Pierce) for 1 hour in 1% BSA/TBS-T (0.05% Tween-20). After washing, wells were incubated with Sure Blue™ TMB-1 peroxidase substrate (KPL) for 30 minutes. The reaction was stopped using 1N HCl. Absorbance values at 450 nm were measured using TECAN plate reader and reflect the amount of ApoE bound to Aβ in the wells. Data were expressed as a percentage of ApoE/Aβ complexes by arbitrarily setting ApoE/Aβ alone at 100%. All compounds were tested at least twice.

Aβ40 = Aβ40 (Homo sapiens, UniProt P05067); experiment: Electrospray MS assay for binding to Aβ40; design: key: +++ = Strong (70 and higher % of free peptide); ++ = Moderate (50-70% of free peptide); + = Weak (25-50% of free peptide); 0 = None; details: 100 μM compound, 20 μM Aβ40, pH 7.4
Excerpt: The ability of a therapeutic compound of the invention to inhibit an interaction between an amyloidogenic protein and a glycoprotein or proteoglycan constituent of a basement membrane can be assessed by an in vitro binding assay, such as that described in U.S. Pat. No. 5,164,295, the contents of which are hereby incorporated by reference. Alternatively, the ability of a compound to bind to an amyloidogenic protein or to inhibit the binding of a basement membrane constituent (e.g. HSPG) to an amyloidogenic protein (e.g. Aβ) can be measured using a mass spectrometry assay where soluble protein, e.g Aβ, IAPP, β2M is incubated with the compound. A compound which binds to, e.g Aβ, will induce a change in the mass spectrum of the protein. Exemplary protocols for a mass spectrometry assay employing Aβ and IAPP can be found in the Examples, the results of which are provided in Table 5. The protocol can readily be modified to adjust the sensitivity of the data, e.g., by adjusting the amount of protein and/or compound employed. Thus, e.g., binding might be detected for test compounds noted as not having detectable binding employing less sensitive test protocols.
The binding ability between the compounds synthesized in Example 4 and Aβ40 in an aqueous solution is tested. The binding ability is attributed semi-quantitatively from the intensities of peptide-compound complex peaks observed in the Electrospray Mass Spectrum.
In the MS assay for Aβ40, samples are prepared as aqueous solutions adding 20% ethanol if necessary to solubilize in water. The stock solution of the peptide contains 50 μm Aβ40. In a typical experiment, 100 μM of an exemplary compound as prepared in Example 4 and 20 μM of solubilized Aβ40 are used. The ratio of the compound: peptide is 5:1. The pH value of each sample is adjusted to 7.4 (±0.2) by addition of 0.1% aqueous sodium hydroxide. The solutions are then analyzed by electrospray ionization mass spectrometry using a Waters ZQ 4000 mass spectrometer. Samples are introduced by direct infusion at a flow-rate of 25 μL/min within 2 hr. after sample preparation. The source temperature is kept at 70° C. and the cone voltage is 20 V for all the analysis. Data are processed using Masslynx 3.5 software. Aβ 1-40 (M.W.=4329) alone at 20 μM is analyzed at pH 7.32 as a control. Sodium clusters, which are typical of this system at +3 and +4 at m/z […] regions, may be observed. The MS assay gives data on the ability of compounds to bind to soluble Aβ, whereas the ThT, EM and CD assays give data on inhibition of fibrillogenesis.
In Table 7, a blank box means that a value was not determined for that compound in that assay.

Aβ40, sequence (P05067 672-711 limits assumed): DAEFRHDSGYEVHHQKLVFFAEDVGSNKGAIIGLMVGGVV
T1 sequence (Q63016 whole entry): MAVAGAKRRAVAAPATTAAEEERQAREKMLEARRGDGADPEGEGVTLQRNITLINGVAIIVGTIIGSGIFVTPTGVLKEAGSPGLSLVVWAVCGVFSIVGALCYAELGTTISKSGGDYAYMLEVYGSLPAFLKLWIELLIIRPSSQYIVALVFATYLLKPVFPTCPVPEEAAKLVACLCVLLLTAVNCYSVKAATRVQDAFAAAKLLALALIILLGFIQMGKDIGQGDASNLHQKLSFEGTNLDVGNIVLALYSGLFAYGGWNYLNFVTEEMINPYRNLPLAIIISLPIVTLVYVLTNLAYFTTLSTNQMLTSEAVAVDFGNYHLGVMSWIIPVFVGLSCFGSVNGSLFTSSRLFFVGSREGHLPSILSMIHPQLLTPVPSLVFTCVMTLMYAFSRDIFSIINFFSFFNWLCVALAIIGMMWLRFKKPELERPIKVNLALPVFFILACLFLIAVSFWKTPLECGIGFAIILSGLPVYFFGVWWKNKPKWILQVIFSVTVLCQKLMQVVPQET
T1 sequence (Q794F9 whole entry partner): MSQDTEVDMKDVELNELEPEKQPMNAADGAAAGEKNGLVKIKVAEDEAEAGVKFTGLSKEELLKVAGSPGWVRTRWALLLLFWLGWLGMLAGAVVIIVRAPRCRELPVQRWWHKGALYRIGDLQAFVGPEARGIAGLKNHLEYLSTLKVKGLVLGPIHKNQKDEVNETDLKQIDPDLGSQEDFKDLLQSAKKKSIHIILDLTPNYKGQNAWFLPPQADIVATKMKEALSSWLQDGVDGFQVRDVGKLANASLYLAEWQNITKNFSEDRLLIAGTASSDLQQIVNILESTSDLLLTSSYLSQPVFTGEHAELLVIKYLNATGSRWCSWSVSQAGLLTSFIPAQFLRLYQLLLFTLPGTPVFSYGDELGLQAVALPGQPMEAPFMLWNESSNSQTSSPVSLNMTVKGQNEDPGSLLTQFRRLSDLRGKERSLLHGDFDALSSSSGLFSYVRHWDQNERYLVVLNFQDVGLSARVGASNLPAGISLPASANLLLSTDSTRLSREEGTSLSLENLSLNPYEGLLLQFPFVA

SMILES: O=C(NC(Cc1cccc(CSc2nnc[nH]2)n1)C(=O)O)NC(c1ccccc1)c1ccccc1 (stereo not drawn) [Compound 37]
Comparison with the Binding of Phenylalanine ([1]; 10^−4 M): 2 (10 < X < 20 Rank 2) | Comparison with the Binding of Phenylalanine ([1]; 10^−5 M): 3 (X > 20 Rank 3) | Comparison with the Binding of Phenylalanine ([1]; 10^−6 M): 2 (10 < X < 20 Rank 2) | Viability (%) (HUVEC; 10^−4 M): 94% | Viability (%) (HUVEC; 10^−5 M): 50% | Viability (%) (HUVEC; 10^−6 M): 87%

SMILES: COc1ccc(-n2nnnc2SCc2cccc(C[C@H](N)C(=O)O)c2)cc1 [drawing 529]
Aβ-ApoE % Complex ([2]; first value of the cell): 98% | Aβ-ApoE % Complex ([2]; second value of the cell): 97%

SMILES: NC(Cc1cccc(CSc2nc3ccccc3o2)n1)C(=O)O (stereo not drawn) [Compound 30]
Comparison with the Binding of Phenylalanine ([1]; 10^−4 M): 1 (0 < X < 10 Rank 1) | Comparison with the Binding of Phenylalanine ([1]; 10^−5 M): 2 (10 < X < 20 Rank 2) | Comparison with the Binding of Phenylalanine ([1]; 10^−6 M): 3 (X > 20 Rank 3) | Viability (%) (HUVEC; 10^−4 M): 110% | Viability (%) (HUVEC; 10^−5 M): 112% | Viability (%) (HUVEC; 10^−6 M): 8%

SMILES: N[C@@H](Cc1cccc(CSc2nccc(C(F)(F)F)n2)n1)C(=O)O [drawing 497]
MS Results (Aβ 1-40 binding) (Aβ40): Compound insoluble

SMILES: N[C@@H](Cc1cccc(CSc2nnc(-c3ccccc3)[nH]2)c1)C(=O)O [drawing 531]
Aβ-ApoE % Complex ([2]; first value of the cell): 88% | Aβ-ApoE % Complex ([2]; second value of the cell): 94%

SMILES: NC(Cc1cccc(CSc2nnnn2-c2ccccc2)c1)C(=O)O (stereo not drawn) [drawing 530]
Aβ-ApoE % Complex ([2]; first value of the cell): 107% | Aβ-ApoE % Complex ([2]; second value of the cell): 97%

SMILES: N[C@@H](Cc1cccc(CSc2nc3ccc(Cl)cc3s2)n1)C(=O)O [drawing 498]
MS Results (Aβ 1-40 binding) (Aβ40): Compound Insoluble

SMILES: N[C@@H](Cc1cccc(CSc2nc3ccccc3[nH]2)n1)C(=O)O [drawing 532]
Aβ-ApoE % Complex ([2]; first value of the cell): 94% | Aβ-ApoE % Complex ([2]; second value of the cell): 112%

SMILES: N[C@@H](Cc1cccc(CS(=O)(=O)c2nc3ccccc3[nH]2)n1)C(=O)O [drawing 493]
MS Results (Aβ 1-40 binding) (Aβ40): + (+ = Weak (25-50% of free peptide))

SMILES: O=C(NC(Cc1cccc(CSc2ncnc3[nH]ncc23)n1)C(=O)O)NC(c1ccccc1)c1ccccc1 (stereo not drawn) [Compound 65]
Viability (%) (HUVEC; 10^−4 M): 107% | Viability (%) (HUVEC; 10^−5 M): 68% | Viability (%) (HUVEC; 10^−6 M): 109%

SMILES: N[C@@H](Cc1cccc(CSc2nnc(-c3ccncc3)o2)c1)C(=O)O [drawing 533]
Aβ-ApoE % Complex ([2]; first value of the cell): 101% | Aβ-ApoE % Complex ([2]; second value of the cell): 94%

SMILES: O=C(O)C(Cc1cccc(CSc2nnc[nH]2)n1)NS(=O)(=O)c1ccc(F)cc1 (stereo not drawn) [Compound 66]
Comparison with the Binding of Phenylalanine ([1]; 10^−4 M): 2 (10 < X < 20 Rank 2) | Comparison with the Binding of Phenylalanine ([1]; 10^−5 M): 3 (X > 20 Rank 3) | Comparison with the Binding of Phenylalanine ([1]; 10^−6 M): 0 (X < 0 Rank 0) | Viability (%) (HUVEC; 10^−4 M): 117% | Viability (%) (HUVEC; 10^−5 M): 114% | Viability (%) (HUVEC; 10^−6 M): 67%

Now from value to molecule:

MS Results (Aβ 1-40 binding) (Aβ40): + (+ = Weak (25-50% of free peptide))
SMILES: N[C@@H](Cc1cccc(CSc2nc3ccccc3[nH]2)c1)C(=O)O [drawing 489]

MS Results (Aβ 1-40 binding) (Aβ40): 0
SMILES: N[C@@H](Cc1cccc(CSc2nccc(O)n2)c1)C(=O)O [drawing 495]

MS Results (Aβ 1-40 binding) (Aβ40): + (+ = Weak (25-50% of free peptide))
SMILES: N[C@@H](Cc1cccc(CS(=O)(=O)c2ncc[nH]2)c1)C(=O)O [drawing 505]

MS Results (Aβ 1-40 binding) (Aβ40): + (+ = Weak (25-50% of free peptide))
SMILES: N[C@@H](Cc1cccc(C[S+]([O-])c2nnnn2-c2ccccc2)c1)C(=O)O (stereo partly drawn) [drawing 496]

MS Results (Aβ 1-40 binding) (Aβ40): + (+ = Weak (25-50% of free peptide))
SMILES: COc1ccc(-n2nnnc2SCc2cccc(C[C@H](N)C(=O)O)c2)cc1 [drawing 487]

MS Results (Aβ 1-40 binding) (Aβ40): 0
SMILES: N[C@@H](Cc1cccc(C[S+]([O-])c2nnnn2-c2ccccc2)n1)C(=O)O (stereo partly drawn) [drawing 500]

MS Results (Aβ 1-40 binding) (Aβ40): 0
SMILES: N[C@@H](Cc1cccc(C[S+]([O-])c2nnc(-c3ccccc3)[nH]2)c1)C(=O)O (stereo partly drawn) [drawing 504]

MS Results (Aβ 1-40 binding) (Aβ40): + (+ = Weak (25-50% of free peptide))
SMILES: N[C@@H](Cc1cccc(CSc2nnc(-c3ccccc3)[nH]2)c1)C(=O)O [drawing 490]
